Results reported in patent publication US20100196462A1, “Method for Manufacturing a Pharmaceutical Form of Oseltamivir Phosphate” (priority 2006, published 2010).

Test: Density of the oseltamivir phosphate active ingredient before densification (pharmacotechnical tests)
Assay type: physicochemical
Conditions: active ingredient as received, without densification

## CCOC(=O)C1=C[C@@H](OC(CC)CC)[C@H](NC(C)=O)[C@@H](N)C1 [oseltamivir phosphate]
  density: approximately 0.1 g/cm^3
